From patent US20250360180A1, “ECHINOCANDIN COMPOUND, AND PREPARATION METHOD THEREFOR AND USE THEREOF” (Zhejiang University, priority 2022, published 2025)
In brackets after ≈: the same amount, converted by molar mass.

Tested on: Candida albicans ATCC 10231
Assay: Minimum inhibitory concentration (MIC) by broth microdilution method
Format: cell-based
Conditions: for MIC value: broth microdilution in MH broth, 37° C., 12 hours, OD600, MIC = lowest concentration that inhibited the growth of more than 90% of the strains; for activity against Candida albicans (in words): summary statement of the MIC experiments
Description: The minimum inhibitory concentration (MIC) values of echinocandin E and echinocandin F were determined by broth microdilution method, and the test strain was Candida albicans ATCC 10231. The MIC value was defined as the lowest antibiotic concentration that inhibited the growth of more than 90% of the strains. Amphotericin B was used as a positive control and echinocandin B as a reference, and each sample was subjected to three parallel experiments.
Candida albicans was cultured in Mueller-Hinton (MH) broth (50 mL 20× Nitrate Salts, 1 mL Trace Elements, and 10.0 g glucose, dissolved in 800 mL ddH2O, adjusted to pH 6.5, fixed to 1 L, added with 16.0 g agar powder, and sterilized at 121° C. for 20 min) (purchased from Hangzhou Basebio Biotechnology Co., Ltd. (Basebio)) and cultured at 37° C. and 180 rpm for 12-16 hours. The fungal solution concentration was controlled to […] by gradient dilution with MH broth.
The sample solution was prepared by dissolving the test samples (amphotericin B, echinocandin B, echinocandin E, echinocandin F) in DMSO to prepare a stock solution with a concentration of 40 μg/ml. An appropriate amount of sterile MH broth medium and the test compounds were added to a 96-well plate, and Candida albicans was quantitatively inoculated so that the total liquid volume in each well was 100 μL. The final concentrations of the compounds were 2, 1.5, 1, 0.8, 0.6, 0.4, 0.2, 0.1, 0.05 and 0 μg/ml, respectively, and DMSO (volume concentration of 5%) was used as a negative control.
The fungal concentration was measured at OD600 using an ELISA reader to determine the MIC value of each sample.

Q: For `C[C@@H]1[C@H](O)[C@@H](C)/C=C/C=C/C=C/C=C/C=C/C=C/C=C/[C@H](O[C@@H]2O[C@H](C)[C@@H](O)[C@H](N)[C@@H]2O)C[C@@H]2O[C@](O)(C[C@@H](O)C[C@@H](O)[C@H](O)CC[C@@H](O)C[C@@H](O)CC(=O)O[C@H]1C)C[C@H](O)[C@H]2C(=O)O` [Amphotericin B, reference compound], which MIC value is on record?
A: The MIC value was 0.2 µg/mL (≈ 0.216 µM).

Q: echinocandin B [reference compound] was tested. Which MIC value did it give?
A: The MIC value was 0.4 µg/mL.

Q: How did the MIC value turn out when echinocandin E was run?
A: The MIC value was 0.6 µg/mL.

Q: What about the “activity against Candida albicans (in words)” value (“activity” for short) of the same compound?
A: The value was “good activity”.

Q: With echinocandin F as the compound, how does the MIC value read?
A: The MIC value was 1.0 µg/mL.

Q: And the “activity” value?
A: Its value is “good activity”.

Q: Which MIC value does the source give for echinocandin G here?
A: The MIC value was 0.8 µg/mL.

Q: What about the “activity” value of the same compound?
A: Its value is “good activity”.

Q: What does the source list for echinocandin H?
A: MIC value: 0.8 µg/mL; activity against Candida albicans (in words): good activity
